Here are results for 29 molecules from paper PMC5241706, “Biochemical and Structural Characterization of Selective Allosteric Inhibitors of the Plasmodium falciparum Drug Target, Prolyl-tRNA-synthetase” (ACS Infectious Diseases, 2016).

Like-named read-outs stand apart in the source and are kept apart here.

Experiment [1] deals with T1, PfProRS (Plasmodium falciparum, UniProt Q8I5R7).
T1 construct: B2, AA7–746 (minus 6 amino acids, or 99% of the ORF); made in house; host or cells: E. coli BL21(DE3)R3 Rosetta Oxford
T1 sequence (Q8I5R7 7-746): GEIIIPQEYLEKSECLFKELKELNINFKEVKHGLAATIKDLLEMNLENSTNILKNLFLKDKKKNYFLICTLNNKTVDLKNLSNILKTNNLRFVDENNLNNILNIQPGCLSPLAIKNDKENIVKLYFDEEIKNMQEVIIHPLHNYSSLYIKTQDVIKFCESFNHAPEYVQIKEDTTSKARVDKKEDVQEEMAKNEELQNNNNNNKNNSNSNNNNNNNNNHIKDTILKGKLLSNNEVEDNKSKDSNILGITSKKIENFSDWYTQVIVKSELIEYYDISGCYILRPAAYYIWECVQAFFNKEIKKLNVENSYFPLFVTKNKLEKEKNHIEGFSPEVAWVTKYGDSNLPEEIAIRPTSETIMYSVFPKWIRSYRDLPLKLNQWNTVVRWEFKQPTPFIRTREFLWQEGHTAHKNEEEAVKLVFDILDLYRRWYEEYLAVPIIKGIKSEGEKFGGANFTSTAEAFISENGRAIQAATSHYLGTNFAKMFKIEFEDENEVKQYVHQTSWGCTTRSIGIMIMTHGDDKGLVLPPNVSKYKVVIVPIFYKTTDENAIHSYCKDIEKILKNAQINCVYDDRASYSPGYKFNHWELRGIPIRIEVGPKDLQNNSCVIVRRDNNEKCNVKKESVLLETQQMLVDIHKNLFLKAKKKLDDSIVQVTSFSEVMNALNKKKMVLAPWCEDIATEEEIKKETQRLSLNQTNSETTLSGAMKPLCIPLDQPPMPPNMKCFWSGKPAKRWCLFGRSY
Description: ATP consumption assay with proline or ATP varied (competition). It counts as biochemical. The conditions noted are these: from IC50 vs [ATP] fit.

Experiment [2] deals with T1, PfProRS. Description: biochemical. The class given is biochemical. The conditions noted are these: for PfProRS activity in words: SAR text to Table 1; for IC50: read-out: Pf ProRS IC50.
The subject of experiment [3] is Plasmodium falciparum strain 3D7. Description: Plasmodium falciparum growth inhibition, SYBR green fluorescence. The class given is cell-based.
For experiment [4], the system named is isolated 3D7 trophozoites (pHi). Kind of experiment: pH assay, BCECF-loaded isolated trophozoites. The note with it: TCMDC-124506 5 μM; KAE609 50 nM.
Experiment [5] addresses T1, PfProRS. Description: aminoacylation assay ([3H]-L-proline incorporation into tRNA). It counts as biochemical.
The target of experiment [6] is T1, PfProRS. Description: luciferase ATP depletion assay, HTS format. The class given is biochemical. The note with it: read-out: Percentage inhibition Pf ProRS.
The target of experiment [7] is T2, HsProRS (Homo sapiens, UniProt P07814).
T2 construct: made in house
T2 sequence (P07814 1007-1512 limits assumed): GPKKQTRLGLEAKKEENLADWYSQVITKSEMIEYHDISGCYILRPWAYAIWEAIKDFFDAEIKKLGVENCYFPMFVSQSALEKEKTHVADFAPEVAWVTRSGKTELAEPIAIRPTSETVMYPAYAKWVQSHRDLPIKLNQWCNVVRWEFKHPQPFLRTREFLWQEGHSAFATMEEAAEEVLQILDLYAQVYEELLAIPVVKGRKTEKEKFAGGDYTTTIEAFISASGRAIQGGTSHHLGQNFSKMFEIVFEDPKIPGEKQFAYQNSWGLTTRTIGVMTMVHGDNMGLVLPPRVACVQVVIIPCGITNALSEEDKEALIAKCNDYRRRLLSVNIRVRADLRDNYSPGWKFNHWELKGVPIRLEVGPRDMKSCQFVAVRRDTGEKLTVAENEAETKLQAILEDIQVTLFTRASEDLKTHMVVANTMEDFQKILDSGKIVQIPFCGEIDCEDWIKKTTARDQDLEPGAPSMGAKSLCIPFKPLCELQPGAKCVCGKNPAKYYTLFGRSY
Kind of experiment: luciferase ATP depletion assay, counter-screen. It counts as biochemical. The conditions noted are these: read-out: Percentage inhibition Hs ProRS. (In general: A counterscreen serves to expose hits that act by an unwanted route or on another target.)

The mark [8] stands for this setting: 3D7, growth inhibition, read-out: Pf (3D7) EC50.

Broadly, the Km is the substrate concentration at which the rate is half of its maximum. In the case of `Nc1ncnc2c1ncn2[C@@H]1O[C@H](COP(=O)(O)OP(=O)(O)OP(=O)(O)O)[C@@H](O)[C@H]1O` [ATP], the Km in experiment [1] is 6.51 ± 1.84 µM.
As to `Cn1nc(C(F)(F)F)c(-c2ccc(F)cc2)c1N` [Compound 2], in experiment [2], the “PfProRS activity in words” value is “inactive” and the IC50 was above 50 µM. In addition, the EC50 in experiment [3] (setting [8]) came out at 5 µM.
For `Cn1nc(C(F)(F)F)c(-c2ccc(F)cc2)c1NC(=O)Nc1ccc(F)cc1F` [Compound 3], the IC50 in experiment [2] was 2.5 µM. The EC50 in experiment [3] (setting [8]) is 0.7 µM.
Consider `Cn1nc(C(F)(F)F)c(-c2ccc(F)cc2)c1NC(=O)Nc1cccc(F)c1` [Compound 4], for which the IC50 in experiment [2] stood at 8 µM. Besides, the EC50 in experiment [3] (setting [8]) amounted to 0.35 µM.
For `COc1ccc(NC(=O)Nc2c(-c3ccc(F)cc3)c(C(F)(F)F)nn2C)cc1` [Compound 5], the IC50 in experiment [2] is above 50 µM. The EC50 in experiment [3] (setting [8]) is above 50 µM.
Consider `Cn1nc(C(F)(F)F)c(-c2ccc(F)cc2)c1NC(=O)Nc1ccnc(N2CCOCC2)c1` [Compound 6], for which, in experiment [2], the IC50 is above 50 µM. Moreover, the EC50 in experiment [3] (setting [8]) was above 50 µM.
Take `O=C(Nc1ccc(F)cc1)Nc1[nH]nc(C(F)(F)F)c1-c1ccc(F)cc1` [Compound 7]: in experiment [2], the “PfProRS activity in words” value is “inactive” and the IC50 is above 50 µM. Besides, the EC50 in experiment [3] (setting [8]) is above 50 µM.
For the molecule `O=C(Nc1ccc(F)cc1)Nc1c(-c2ccc(F)cc2)c(C(F)(F)F)nn1CCO` [Compound 8], the IC50 in experiment [2] was above 50 µM. Also, the EC50 in experiment [3] (setting [8]) was above 50 µM.
Consider `NC(=O)Cn1nc(C(F)(F)F)c(-c2ccc(F)cc2)c1NC(=O)Nc1ccc(F)cc1` [Compound 9], for which the IC50 in experiment [2] is above 50 µM. Also, in experiment [3] (setting [8]), the EC50 was above 50 µM.
As for `Cn1nc(C(F)(F)F)cc1NC(=O)Nc1ccc(F)cc1` [Compound 10, 1-(4-fluorophenyl)-3-(1-methyl-3-(trifluoromethyl)-1H-pyrazol-5-yl)urea], in experiment [2], the “PfProRS activity in words” value is “inactive” and the IC50 is above 50 µM. In experiment [3] (setting [8]), the EC50 amounted to 46 µM.
The matching figures for `Cn1nc(C(F)(F)F)c(Br)c1NC(=O)Nc1ccc(F)cc1` [Compound 11, 1-[4-bromo-2-methyl-5-(trifluoromethyl)pyrazol-3-yl]-3-(4-fluorophenyl)urea]: “inactive”, above 50 µM and 16 µM.
With `Cn1nc(C(F)(F)F)c(-c2ccccc2CO)c1NC(=O)Nc1ccc(F)cc1` [Compound 13], in experiment [2], the “drop in PfProRS potency versus hit compound” value came to 4 fold and the IC50 was 20 µM. Also, the EC50 in experiment [3] (setting [8]) is 8 µM.
For `Cn1nc(C(F)(F)F)c(-c2ccccc2CCO)c1NC(=O)Nc1ccc(F)cc1` [Compound 14], the IC50 in experiment [2] was above 50 µM.
For `Cn1nc(C(F)(F)F)c(-c2cccc(CCO)c2)c1NC(=O)Nc1ccc(F)cc1` [Compound 15], the IC50 in experiment [2] was 13 µM. Besides, the EC50 in experiment [3] (setting [8]) is 4 µM.
As for `Cn1nc(C(F)(F)F)c(-c2cccc(CNS(C)(=O)=O)c2)c1NC(=O)Nc1ccc(F)cc1` [Compound 16], in experiment [2], the “PfProRS activity in words” value is “inactive” and the IC50 is above 50 µM. The EC50 in experiment [3] (setting [8]) came to 10 µM.
On to `Cn1nc(C(F)(F)F)c(-c2cccc(C(F)(F)F)c2)c1NC(=O)Nc1ccc(F)cc1` [Compound 17], for which the IC50 in experiment [2] was above 50 µM. Also, the EC50 in experiment [3] (setting [8]) is 0.9 µM.
On the same counts, the results for `Cn1ncc(-c2ccc(F)cc2)c1NC(=O)Nc1ccc(F)cc1` [Compound 18] are above 50 µM and 27 µM.
On the same counts, the results for `Cn1nc(CCO)c(-c2ccc(F)cc2)c1NC(=O)Nc1ccc(F)cc1` [Compound 19] are 18 µM and 20 µM.
On the same counts, the results for `Cn1nc(C(N)=O)c(-c2ccc(F)cc2)c1NC(=O)Nc1ccc(F)cc1` [Compound 20] are 14 µM and above 50 µM.
Take `Cn1nc(CCC(N)=O)c(-c2ccc(F)cc2)c1NC(=O)Nc1ccc(F)cc1` [Compound 21]: the IC50 in experiment [2] was 8 µM. Also, the EC50 in experiment [3] (setting [8]) was above 50 µM.
On the same counts, the results for `Cn1nc(C#N)c(-c2ccc(F)cc2)c1NC(=O)Nc1ccc(F)cc1` [Compound 22] are 5 µM and 0.6 µM.
In the case of `Cn1nc(CC#N)c(-c2ccc(F)cc2)c1NC(=O)Nc1ccc(F)cc1` [Compound 23], the IC50 in experiment [2] is 6 µM. Also, the EC50 in experiment [3] (setting [8]) was determined as 4 µM.
Regarding `Cn1nc(CCC#N)c(-c2ccc(F)cc2)c1NC(=O)Nc1ccc(F)cc1` [Compound 24], the IC50 in experiment [2] was 9 µM. In experiment [3] (setting [8]), the EC50 was found to be 6 µM.
For the molecule `CN(C)CCc1nn(C)c(NC(=O)Nc2ccc(F)cc2)c1-c1ccc(F)cc1` [Compound 25], the IC50 in experiment [2] came out at 4 µM. Moreover, the EC50 in experiment [3] (setting [8]) was above 50 µM.
Consider `Cn1nc(CCN2CCOCC2)c(-c2ccc(F)cc2)c1NC(=O)Nc1ccc(F)cc1` [Compound 26], for which, in experiment [2], the IC50 was determined as 3 µM. In addition, the EC50 in experiment [3] (setting [8]) worked out at 10 µM.
On to `C[C@H]1Cc2c([nH]c3cc(Cl)c(F)cc23)[C@@]2(N1)C(=O)Nc1ccc(Cl)cc12` [KAE609, reference compound], for which the “effect on parasite cytosolic pH (pHi)” value in experiment [4] is listed as “caused an increase in pHi”.
For `OC(c1cc(C(F)(F)F)nc2c(C(F)(F)F)cccc12)C1CCCCN1` (centres unmarked) [Mefloquine, reference compound], the EC50 in experiment [3] (P. falciparum 3D7, read-out: potency range (drug control)) lay within 0.03 to 0.06 µM.
`CC(C)(C)OC(=O)N1CCC[C@@H](O)[C@@H]1CC(=O)Cn1cnc2cc(Br)c(Cl)cc2c1=O` [N-Boc-halofuginone]: in experiment [5] (Hill slope = 1, Figure S2, read-out: IC50, [3H]-L-proline aminoacylation incorporation assay), the IC50 was above 3 µM. The inhibition of aminoacylation in experiment [5] (at the highest concentrations tested) is reported as below 20%.
Broadly, the inhibition is the change of the read-out against control, counted positive when it falls. As to `CCCc1nc2c(C)cc(-c3nc4ccccc4n3C)cc2n1Cc1ccc(-c2ccccc2C(=O)O)cc1` [telmisartan], the inhibition at 0.73 µM in experiment [6] is -0.36%; in experiment [7] (at 0.73 μM), 0.44%. Further, the inhibition at 1.46 µM in experiment [6] was -0.06%; in experiment [7] (at 1.46 μM (750 μM series)), 0.05%. Moreover, the inhibition at 2.93 µM in experiment [6] is -0.17%; in experiment [7] (at 2.93 μM), 0.04%. The inhibition at 5.86 µM was -0.08% in experiment [6] and -0.1% in experiment [7] (at 5.86 μM). The inhibition at 11.72 µM was 2.19% in experiment [6] and 0.01% in experiment [7] (at 11.72 μM). In addition, the inhibition at 23.44 µM in experiment [6] came out at 3.94%; in experiment [7] (at 23.44 μM) it was 0%. Moreover, the results for the inhibition at 46.88 µM in experiment [6] and in experiment [7] (at 46.88 μM) were 13.4% and -0.02%, respectively. Moreover, the inhibition at 93.75 µM was found to be 48.8% in experiment [6] and 0.37% in experiment [7] (at 93.75 μM). Further, the inhibition at 187.5 µM in experiment [6] worked out at 80.8%; in experiment [7] (at 187.50 μM) it was 4.23%. Moreover, the inhibition at 375 µM in experiment [6] amounted to 15.5%; in experiment [7] (at 375 μM), 0.25%. In addition, the figures for the inhibition at 750 µM in experiment [6] and in experiment [7] (at 750 μM) were 11.8% and 0.58%, respectively.
